Results: patent publication US6911207B1, “Cytotoxic T-cell epitopes of the papillomavirus L1-protein and use thereof in diagnostics and therapy” (MediGene Aktiengesellschaft, priority 1999, dated 2005)

What was measured:
[1] = system: MVA-L1Δc-infected B6 cells; type: cell-based, mouse
[2] = system: RMA-S cells; type: cell-based, mouse

Row | Substance | specific lysis of MVA-F6-infected (control virus) B6 target cells by spleen cells of the immunized mouse [1] | specific lysis of MVA-L1Δc-infected B6 target cells by spleen cells of the immunized mouse [1] | specific lysis of peptide-preincubated RMA-S target cells by spleen cells of L1-immunized mouse 1 [2]
1 | L1 VLPs: HPV16 L1 virus-like particles (Muller M. et al. 1997) | not the MVA-F6-infected target cells | lysed the MVA-L1Δc-infected target cells | 
2 | ASNENMETM (Influenza Virus Type A) [AM control peptide] |  |  | did not cause any distinct lysis
